In US10010576B2, “Method of treatment” (Hexima Limited, priority 2014, dated 2018):

Columns and labels:
Microsporum fulvum = assay: Antifungal growth inhibition assay in 96 well microtitre plates (A595); assay type: cell-based
Protocol: (§1) The inhibitory effects of the plant defensins on the growth of Trichophyton rubrum, T. interdigitale, Microsporum fulvum and C. albicans (obtained from the National Mycology Reference Centre, South Australia Pathology at the Women's and Children's Hospital, Adelaide, Australia) are measured essentially as described by Broekaert et al. (1990) FEMS Microbiol Lett 69:55-59. Spores of T. rubrum, T. interdigitale and M. fulvum are isolated from sporulating fungus growing on 1⁄2 strength Sabouraud dextrose agar (SDA). Spores were removed from the plates by the addition of 1⁄2 strength potato dextrose broth (PDB). C. albicans cells are grown in Yeast Peptone Broth (YPD) for 16 h. Spore and cell concentrations are measured using a hemocytometer. Antifungal assays are conducted in 96 well microtitre plates essentially as herein described. Wells are loaded with 20 μm L of filter sterilized (0.22 μm syringe filter, Millipore) defensin (10× stock for each final concentration) or water and 80 μm L of 5×10^4 spores/mL (T. rubrum, T. interdigitale, M. fulvum) or 5,000 cells/mL (C. albicans) in 1⁄2 strength PDB. The plates are incubated at 30° C. Fungal growth is assayed by measuring optical density at 595 nm ([…]) using a microtitre plate reader (SpectraMax Pro M2; Molecular Devices. Growth is allowed to proceed until the optical density (OD) of the fungus in the absence of any test defensin reached an OD of 0.2. Each test is performed in duplicate.

Trichophyton rubrum = assay: as above; assay type: cell-based
Protocol: as §1

T. interdigitale = assay: as above; assay type: cell-based, Trichophyton interdigitale
Protocol: as §1

[1] = system: Trichophyton rubrum, T. interdigitale, Microsporum fulvum and C. albicans; assay: Inhibition assays, summary across the range of fungal pathogens; assay type: cell-based; conditions: summary of Table 3
Protocol: as §1

C. albicans = assay: Antifungal growth inhibition assay in 96 well microtitre plates (A595); assay type: cell-based, Candida albicans
Protocol: as §1

[2] = Penetration through human nails (nail adapter, wetted cotton bud receptor, RP-HPLC); assay type: in vitro ADME
Protocol: Penetration of NaD1 through human nails was measured according to the method of Hui et al. (2002) J Pharm Sci 91(1):189-195. Human toenails were obtained from ScienceCare (USA) and washed with phosphate buffered saline (details, PBS) before being placed on a kimwipe that had been soaked in PBS for 3 h to rehydrate the nail. […]
The cotton bud in contact with the underside of the nail was removed after 24 h and every 24 h following. Protein that had passed through the nail was recovered from the cotton bud by washing twice with 500 μL of 0.1% v/v trifluoroacetic acid. Recovered protein was quantified using RP-HPLC.

[3] = system: Human monocytic lymphoma (U937) cells; assay type: cell-based
Protocol: Human monocytic lymphoma (U937) cells are cultured in RPMI-1640 medium. All culture media are supplemented with 5-10% v/v fetal calf serum, 100 U/ml of penicillin, and 100 μg/ml of streptomycin. Cell lines are cultured at 37° C. in a humidified atmosphere containing 5% v/v CO2. Adherent cell lines are detached from the flask by adding a mixture containing 0.25% v/v trypsin and […] EDTA. A flow cytometry-based propidium iodide (PI) uptake assay is performed to analyze the ability of plant defensins to permeabilize U937 cells (essentially as described in Poon et al, 2014). Briefly, cells are suspended to 1×10^6 cells/ml in 0.1% v/v BSA/RPMI-1640 and incubated with plant defensins (10 μM) at 37° C. for 30 min Samples are added to PBS containing a final concentration of 1 μg/ml PI and placed on ice. Samples are then analyzed immediately using the BD FACSCanto II Flow Cytometer and BD FACSDiva software v6.1.1. The resultant flow cytometry data is analyzed using FlowJo software v8.8.6. Cells are gated appropriately based on forward scatter and side scatter and cell permeabilization is defined by PI-positive staining.

[4] = Day 3, 10 uL of 10% solution, 0.8 cm^2, daily application
[5] = Day 6, 10 uL of 10% solution, 0.8 cm^2, daily application
[6] = Day 9, 10 uL of 10% solution, 0.8 cm^2, daily application
[7] = Day 12, 10 uL of 10% solution, 0.8 cm^2, daily application
[8] = Day 15, 10 uL of 10% solution, 0.8 cm^2, daily application

HXL015: Class I plant defensin from Oryza sativa, SEQ ID NO:12 (RHCLSQSHRFKGMCVSSNNCANVCRTESFPDGECKSHGLERKCFCKKVC; HXL015 Oryza sativa)
IC50 against M. fulvum (Microsporum fulvum): 12.5 µg/mL | IC50 against T. rubrum (Trichophyton rubrum): 10 µg/mL | IC50 against T. interdigitale (T. interdigitale): 3.5 µg/mL | Antifungal activity across the range of fungal pathogens [1]: intermediate activity

HXL012: Class I plant defensin from Amaranthus retroflexus, SEQ ID NO:10 (RMCKAPSKLFRGMCGIRDSNCDSVCRAEGMAAGDCHGLRRRCICSRPC; HXL012 Amaranthus retroflexus)
IC50 against M. fulvum (Microsporum fulvum): 18 µg/mL | IC50 against T. rubrum (Trichophyton rubrum): 2 µg/mL | IC50 against T. interdigitale (T. interdigitale): 2 µg/mL | IC50 against C. albicans (C. albicans): 42 µg/mL | Antifungal activity across the range of fungal pathogens [1]: intermediate activity | Nail penetration [2]: did not penetrate the nail | Cells permeabilized (PI-positive) [3]: less than 2%

HXL035: Class I plant defensin from Picramnia pentandra, SEQ ID NO:2 (KVCTKPSKFFKGLCGFDRDCTVACKKEGLASGFCQNKGFFNVVCVCRKPC; HXL035 Picramnia pentandra)
IC50 against M. fulvum (Microsporum fulvum): 2 µg/mL | IC50 against T. rubrum (Trichophyton rubrum): 2 µg/mL | IC50 against T. interdigitale (T. interdigitale): 1 µg/mL | IC50 against C. albicans (C. albicans): 18 µg/mL | Antifungal activity across the range of fungal pathogens [1]: the most effective plant defensins across the range of fungal pathogens

HXL003: Class I plant defensin from Triticum aestivum, SEQ ID NO:6 (ARDCTSQSHKFVGLCLSDRNCASVCLTEYFTGGKCDHRRCVCTKGC; HXL003 Triticum aestivum)
IC50 against M. fulvum (Microsporum fulvum): >100 µg/mL | IC50 against C. albicans (C. albicans): >100 µg/mL

HXL009: Class I plant defensin from Zea mays, SEQ ID NO:9 (Table 1) (TVCMRHNNFYHGPCMSNKDCANSCVQHNLGVGGYCRGKIPFNKECMCTFEC; HXL009 Zea mays)
IC50 against M. fulvum (Microsporum fulvum): >100 µg/mL | IC50 against C. albicans (C. albicans): >100 µg/mL | Antifungal activity across the range of fungal pathogens [1]: did not display any activity at the concentrations tested | Cells permeabilized (PI-positive) [3]: less than 2%

Cc1cc(C2CCCCC2)n(O)c(=O)c1 [Ciclopirox, ciclopirox]
Cumulative amount through nail ([2]; human, 3 day, 10 %): 1 µg | Cumulative amount through nail, percent (line without head; fits percent of cumulative applied dose) ([2]; human, 3 day, 10 %): 0.03% | Cumulative amount through nail ([2]; human, 6 day, 10 %): 2 µg | Cumulative amount through nail, percent (line without head; fits percent of cumulative applied dose) ([2]; human, 6 day, 10 %): 0.03% | Cumulative amount through nail ([2]; human, 9 day, 10 %): 4 µg | Cumulative amount through nail, percent (line without head; fits percent of cumulative applied dose) ([2]; human, 9 day, 10 %): 0.04% | Cumulative amount through nail ([2]; human, 12 day, 10 %): 6 µg | Cumulative amount through nail, percent (line without head; fits percent of cumulative applied dose) ([2]; human, 12 day, 10 %): 0.05% | Cumulative amount through nail ([2]; human, 15 day, 10 %): 9 µg | Cumulative amount through nail, percent (line without head; fits percent of cumulative applied dose) ([2]; human, 15 day, 10 %): 0.06%

HXL013: Class I plant defensin from Glycine max, SEQ ID NO:11 (KDCLTRRHGFQGRCLFDRQCAHVCRSDGFIGGQCRGPLRKCFCSRPC; HXL013 Glycine max)
IC50 against M. fulvum (Microsporum fulvum): 5.5 µg/mL | IC50 against T. rubrum (Trichophyton rubrum): 22 µg/mL | IC50 against C. albicans (C. albicans): 20 µg/mL | Antifungal activity across the range of fungal pathogens [1]: intermediate activity | Cells permeabilized (PI-positive) [3]: 5%

OB1OCc2cc(F)ccc21 [Tavaborole, tavaborole]
Cumulative amount through nail [2, 4]: 60 µg | Cumulative amount through nail, percent (line without head; fits percent of cumulative applied dose) [2, 4]: 2.0% | Cumulative amount through nail [2, 5]: 220 µg | Cumulative amount through nail, percent (line without head; fits percent of cumulative applied dose) [2, 5]: 3.7% | Cumulative amount through nail [2, 6]: 610 µg | Cumulative amount through nail, percent (line without head; fits percent of cumulative applied dose) [2, 6]: 6.8% | Cumulative amount through nail [2, 7]: 1280 µg | Cumulative amount through nail, percent (line without head; fits percent of cumulative applied dose) [2, 7]: 10.7% | Cumulative amount through nail [2, 8]: 2240 µg | Cumulative amount through nail, percent (line without head; fits percent of cumulative applied dose) [2, 8]: 14.9%

HXP4: Artificial defensin variant, Loop1B from a Class I defensin replaces that of a Solanaceous Class II defensin, SEQ ID NO:21 (RECKTESHRFKGPCITKPPCRKACISEKFTDGHCSKILRRCLCTKPC; HXP4)
Cells permeabilized (PI-positive) [3]: 13%

HXL005: Class I plant defensin from Taraxcum kok-saghyz, SEQ ID NO:8 (Table 1) (KMCQTTSHAFSCVNDSGCSGSCEKQGFASGKCDGVRRRCTCYKKC; HXL005 Taraxcum kok-saghyz)
IC50 against M. fulvum (Microsporum fulvum): 5 µg/mL | IC50 against T. rubrum (Trichophyton rubrum): 3 µg/mL | IC50 against T. interdigitale (T. interdigitale): 3.5 µg/mL | IC50 against C. albicans (C. albicans): 22 µg/mL | Antifungal activity across the range of fungal pathogens [1]: the most effective plant defensins across the range of fungal pathogens | Cells permeabilized (PI-positive) [3]: ~25%

C=C1CCN([C@H](C)[C@](O)(Cn2cncn2)c2ccc(F)cc2F)CC1 [Efinaconazole, efinaconazole]
Cumulative amount through nail ([2]; human, 1 day, 10 %): 0.4 µg | Cumulative amount through nail, percent (line without head; fits percent of applied dose) ([2]; human, 1 day, 10 %): 0.2% | Cumulative amount through nail ([2]; human, 2 day, 10 %): 0.7 µg | Cumulative amount through nail, percent (line without head; fits percent of applied dose) ([2]; human, 2 day, 10 %): 0.4% | Cumulative amount through nail ([2]; human, 3 day, 10 %): 1.3 µg | Cumulative amount through nail, percent (line without head; fits percent of applied dose) ([2]; human, 3 day, 10 %): 0.7% | Cumulative amount through nail ([2]; human, 4 day, 10 %): 1.6 µg | Cumulative amount through nail, percent (line without head; fits percent of applied dose) ([2]; human, 4 day, 10 %): 0.8% | Cumulative amount through nail ([2]; human, 6 day, 10 %): 2.6 µg | Cumulative amount through nail, percent (line without head; fits percent of applied dose) ([2]; human, 6 day, 10 %): 1.3% | Cumulative amount through nail ([2]; human, 9 day, 10 %): 4.0 µg | Cumulative amount through nail, percent (line without head; fits percent of applied dose) ([2]; human, 9 day, 10 %): 2.0% | Cumulative amount through nail ([2]; human, 12 day, 10 %): 5.4 µg | Cumulative amount through nail, percent (line without head; fits percent of applied dose) ([2]; human, 12 day, 10 %): 2.7% | Cumulative amount through nail ([2]; human, 15 day, 10 %): 6.5 µg | Cumulative amount through nail, percent (line without head; fits percent of applied dose) ([2]; human, 15 day, 10 %): 3.3%

HXL002: Class I plant defensin from Triticum aestivum, SEQ ID NO:5 (RDCLSQSHKFKGACLSSSNCAAVCRTENFPDGECHTHNFARKCFCKRAC; HXL002 Triticum aestivum)
IC50 against M. fulvum (Microsporum fulvum): 50 µg/mL | Inhibition of M. fulvum (Microsporum fulvum): very poor inhibitors | IC50 against C. albicans (C. albicans): 35 µg/mL | Inhibition of C. albicans (C. albicans): very poor inhibitors | Cells permeabilized (PI-positive) [3]: less than 2%

HXL001: Class I plant defensin from Zea mays, SEQ ID NO:4 (RHCLSQSHRFKGLCMSSNNCANVCQTENFPGGECKAEGATRKCFCKKIC; HXL001 Zea mays)
IC50 against M. fulvum (Microsporum fulvum): >100 µg/mL | IC50 against T. rubrum (Trichophyton rubrum): >100 µg/mL | IC50 against C. albicans (C. albicans): 35 µg/mL | Antifungal activity across the range of fungal pathogens [1]: did not display any activity at the concentrations tested | Cells permeabilized (PI-positive) [3]: less than 2%
